The text below walks through data of ChEMBL document CHEMBL1201862, “PubChem BioAssay data set” (2004).

The target of data set [1] is T1, Rac GTPase-activating protein 1 (Homo sapiens, UniProt Q9H0H5).
T1 sequence (Q9H0H5 whole entry): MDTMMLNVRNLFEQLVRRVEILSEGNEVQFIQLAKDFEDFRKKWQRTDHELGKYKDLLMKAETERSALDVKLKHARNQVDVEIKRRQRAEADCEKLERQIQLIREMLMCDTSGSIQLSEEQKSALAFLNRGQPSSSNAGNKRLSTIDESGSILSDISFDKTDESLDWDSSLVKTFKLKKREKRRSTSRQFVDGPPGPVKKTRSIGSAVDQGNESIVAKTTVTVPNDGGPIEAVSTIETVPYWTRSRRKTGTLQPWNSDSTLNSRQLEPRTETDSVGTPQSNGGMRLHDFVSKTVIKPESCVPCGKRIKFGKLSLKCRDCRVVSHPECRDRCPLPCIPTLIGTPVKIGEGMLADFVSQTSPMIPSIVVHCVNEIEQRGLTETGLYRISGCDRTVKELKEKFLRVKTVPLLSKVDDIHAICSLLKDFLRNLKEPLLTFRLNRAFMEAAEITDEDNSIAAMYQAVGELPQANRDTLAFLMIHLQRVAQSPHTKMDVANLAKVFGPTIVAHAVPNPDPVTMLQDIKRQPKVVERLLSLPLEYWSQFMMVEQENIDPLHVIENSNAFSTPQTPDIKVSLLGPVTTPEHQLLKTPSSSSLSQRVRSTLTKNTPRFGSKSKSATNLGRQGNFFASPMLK
Kind of data set: MgcRacGAP GTPase-activating activity inhibitors, confirmation, biochemical, ADP Hunter fluorescence, primary and confirmatory (AID 624330). In kind it is functional.

In data set [2] the target is Glucose-6-phosphate 1-dehydrogenase (Homo sapiens, UniProt P11413). The data set is described as follows: human G6PD enzyme inhibitors, dose response, selectivity assay for P. falciparum G6PD inhibitor project, biochemical, fluorescence (AID 504792). The format is functional.
Sequence of Glucose-6-phosphate 1-dehydrogenase (P11413 whole entry): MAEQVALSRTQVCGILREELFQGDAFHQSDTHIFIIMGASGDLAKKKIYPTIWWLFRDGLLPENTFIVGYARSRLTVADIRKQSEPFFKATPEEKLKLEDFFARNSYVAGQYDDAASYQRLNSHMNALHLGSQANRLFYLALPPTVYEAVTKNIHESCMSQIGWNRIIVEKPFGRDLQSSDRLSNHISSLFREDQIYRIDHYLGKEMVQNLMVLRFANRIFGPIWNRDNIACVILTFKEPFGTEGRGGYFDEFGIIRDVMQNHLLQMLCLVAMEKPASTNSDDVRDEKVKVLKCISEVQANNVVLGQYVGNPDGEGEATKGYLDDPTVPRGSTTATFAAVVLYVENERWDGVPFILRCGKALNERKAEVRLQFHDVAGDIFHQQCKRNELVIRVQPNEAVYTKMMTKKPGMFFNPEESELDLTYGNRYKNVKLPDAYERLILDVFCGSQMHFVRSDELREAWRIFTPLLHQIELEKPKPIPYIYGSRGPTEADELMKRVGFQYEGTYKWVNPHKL
For data set [3], the target named is T2, Short transient receptor potential channel 4 (Mus musculus, UniProt Q9QUQ5).
T2 sequence (Q9QUQ5 whole entry): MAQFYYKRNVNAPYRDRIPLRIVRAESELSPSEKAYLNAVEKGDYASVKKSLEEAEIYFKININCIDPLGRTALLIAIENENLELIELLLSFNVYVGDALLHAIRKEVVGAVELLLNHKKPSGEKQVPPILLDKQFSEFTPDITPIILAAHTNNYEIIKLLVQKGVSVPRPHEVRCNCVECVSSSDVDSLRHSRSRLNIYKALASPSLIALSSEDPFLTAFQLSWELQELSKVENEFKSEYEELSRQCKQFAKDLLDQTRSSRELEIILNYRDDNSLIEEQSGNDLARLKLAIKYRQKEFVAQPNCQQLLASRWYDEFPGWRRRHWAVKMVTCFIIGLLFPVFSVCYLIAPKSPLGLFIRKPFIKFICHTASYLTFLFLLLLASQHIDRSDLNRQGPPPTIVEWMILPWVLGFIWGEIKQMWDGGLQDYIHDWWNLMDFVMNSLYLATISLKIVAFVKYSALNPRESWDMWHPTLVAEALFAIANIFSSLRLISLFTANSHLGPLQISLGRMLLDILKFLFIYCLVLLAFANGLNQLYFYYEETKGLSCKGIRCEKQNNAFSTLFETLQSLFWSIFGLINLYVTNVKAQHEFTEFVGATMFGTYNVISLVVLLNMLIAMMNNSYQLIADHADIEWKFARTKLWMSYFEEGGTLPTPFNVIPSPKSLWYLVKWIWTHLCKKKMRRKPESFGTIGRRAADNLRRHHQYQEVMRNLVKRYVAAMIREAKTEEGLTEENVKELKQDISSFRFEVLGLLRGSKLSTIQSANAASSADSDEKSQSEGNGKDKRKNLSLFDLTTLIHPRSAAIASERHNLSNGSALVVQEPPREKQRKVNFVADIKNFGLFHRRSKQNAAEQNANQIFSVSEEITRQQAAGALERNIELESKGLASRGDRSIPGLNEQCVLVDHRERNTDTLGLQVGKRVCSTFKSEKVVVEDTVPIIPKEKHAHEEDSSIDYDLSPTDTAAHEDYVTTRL
The data set is described as follows: mouse TRPC4 channel activators, dose response, cell-based, HEK293 TRPC4/mu-opioid, Fluo-4 calcium (AID 434937). In kind it is functional.

Data set [4] concerns the target Cytochrome P450 2C9 (Homo sapiens, UniProt P11712).
Data set [5] concerns the target T3, Apoptotic protease-activating factor 1 (Homo sapiens, UniProt O14727).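 Note: caspase-3 cleavage of fluorogenic Rh110 DEVD substrate downstream of apoptosome activation.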
T3 sequence (O14727 whole entry): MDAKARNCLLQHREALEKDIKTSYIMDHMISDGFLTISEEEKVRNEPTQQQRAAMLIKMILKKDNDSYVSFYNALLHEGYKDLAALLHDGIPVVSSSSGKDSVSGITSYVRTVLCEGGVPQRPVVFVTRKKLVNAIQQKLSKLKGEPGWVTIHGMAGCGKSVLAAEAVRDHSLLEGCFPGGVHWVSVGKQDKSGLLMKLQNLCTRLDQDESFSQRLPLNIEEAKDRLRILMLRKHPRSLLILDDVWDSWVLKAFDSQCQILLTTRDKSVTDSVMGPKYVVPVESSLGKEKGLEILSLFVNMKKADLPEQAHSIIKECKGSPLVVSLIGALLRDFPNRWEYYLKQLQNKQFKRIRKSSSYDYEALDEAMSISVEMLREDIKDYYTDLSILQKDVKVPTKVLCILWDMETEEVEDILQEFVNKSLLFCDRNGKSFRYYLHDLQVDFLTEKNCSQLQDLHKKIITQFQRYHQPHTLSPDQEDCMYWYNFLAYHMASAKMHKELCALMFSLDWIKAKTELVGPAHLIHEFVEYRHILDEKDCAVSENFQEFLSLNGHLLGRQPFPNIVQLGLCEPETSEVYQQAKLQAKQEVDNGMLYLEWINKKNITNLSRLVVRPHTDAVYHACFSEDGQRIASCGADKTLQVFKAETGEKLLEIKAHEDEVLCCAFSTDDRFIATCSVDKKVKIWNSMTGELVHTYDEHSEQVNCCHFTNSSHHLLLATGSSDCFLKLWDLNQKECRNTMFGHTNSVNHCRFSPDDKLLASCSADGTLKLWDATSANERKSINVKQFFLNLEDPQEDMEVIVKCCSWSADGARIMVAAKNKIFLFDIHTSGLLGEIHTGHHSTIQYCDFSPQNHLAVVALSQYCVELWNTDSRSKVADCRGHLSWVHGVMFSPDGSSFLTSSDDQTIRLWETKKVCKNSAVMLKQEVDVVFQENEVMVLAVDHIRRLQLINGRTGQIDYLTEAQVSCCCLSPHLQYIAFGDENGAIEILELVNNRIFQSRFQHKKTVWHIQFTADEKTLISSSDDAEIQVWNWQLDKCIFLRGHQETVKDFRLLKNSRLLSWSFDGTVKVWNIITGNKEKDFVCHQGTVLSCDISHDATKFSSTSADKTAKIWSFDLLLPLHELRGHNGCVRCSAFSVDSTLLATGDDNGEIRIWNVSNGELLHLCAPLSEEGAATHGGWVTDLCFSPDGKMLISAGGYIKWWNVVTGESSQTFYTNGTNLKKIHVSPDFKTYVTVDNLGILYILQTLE
The data set is described as follows: SAR analysis of small molecule Activators of Apaf-1 in a Fluorescent assay. In kind it is functional. As to conditions: read-out: EC50_Mean.

The test system of data set [6] is H9c2. Kind of data set: cells. In kind it is functional, cell-based. Conditions: Rattus norvegicus, H9c2, Myocardium.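 Note: confirmatory concentration-response retest of ultra-high-throughput screening hits for modulation of myocardial damage; cell death induced by hydrogen peroxide oxidative stress; compound pretreatment for 60 min then peroxide exposure for 2 h; potency is for protecting the cells against peroxide damage rather than for killing them.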
In data set [7] the target is DNA dC->dU-editing enzyme APOBEC-3G (Homo sapiens, UniProt Q9HC16). The format is functional.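 Note: Dose-response counterscreen measuring inhibition of APOBEC3G DNA deaminase activity, run while confirming APOBEC3A inhibitors.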
Sequence of DNA dC->dU-editing enzyme APOBEC-3G (Q9HC16 whole entry, the tested form may be a part): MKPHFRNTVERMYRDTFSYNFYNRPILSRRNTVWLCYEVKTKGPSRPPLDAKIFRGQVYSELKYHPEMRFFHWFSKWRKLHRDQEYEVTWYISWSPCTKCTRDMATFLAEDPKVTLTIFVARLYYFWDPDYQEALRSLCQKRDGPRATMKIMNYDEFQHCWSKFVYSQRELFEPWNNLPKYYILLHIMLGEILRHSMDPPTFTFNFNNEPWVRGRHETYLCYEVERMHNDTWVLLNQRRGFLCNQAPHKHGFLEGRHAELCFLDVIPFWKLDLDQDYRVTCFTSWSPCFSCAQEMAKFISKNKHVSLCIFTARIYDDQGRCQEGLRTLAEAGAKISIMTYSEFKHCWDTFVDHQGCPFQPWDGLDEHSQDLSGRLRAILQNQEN
The target of data set [8] is T4, Carboxy-terminal domain RNA polymerase II polypeptide A small phosphatase 1 (Homo sapiens, UniProt Q9GZU7).
T4 sequence (Q9GZU7 whole entry): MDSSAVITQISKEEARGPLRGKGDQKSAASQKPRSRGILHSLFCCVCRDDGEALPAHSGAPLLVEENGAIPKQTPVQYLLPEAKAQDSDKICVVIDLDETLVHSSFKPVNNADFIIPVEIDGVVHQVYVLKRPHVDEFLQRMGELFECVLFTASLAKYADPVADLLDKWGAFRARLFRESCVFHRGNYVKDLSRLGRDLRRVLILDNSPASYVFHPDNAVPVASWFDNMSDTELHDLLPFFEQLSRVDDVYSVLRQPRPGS
The data set is described as follows: inhibitors of CTDSP1, concentration-response testing, biochemical assay, absorbance-based, actives from ultra-high-throughput screening (AID 540297). The format is functional.

Data set [9] has as its target DNA dC->dU-editing enzyme APOBEC-3A (Homo sapiens, UniProt P31941). Kind of data set: Dose Response confirmation of small molecule APOBEC3A DNA Deaminase Inhibitors via a fluorescence-based single-stranded DNA deaminase assay. [Related pubchem assays (depositor defined):AID493011, AID493024]. In kind it is functional.
In data set [10] the test system is HEK293. Kind of data set: inhibitors of LMP1-driven NF-kB reporter, dose response, cell-based, HEK293, luciferase, cherry-pick (AID 588343). Conditions: Homo sapiens. In kind it is functional.
Data set [11] in a line: inhibitors of intracellular T. cruzi replication, confirmation, NIH3T3 host cells, beta-gal luminescence (AID 2044).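 Note: intracellular parasites grown in NIH/3T3 mouse fibroblasts as host cells; luminescent beta-galactosidase reporter signal from transgenic T. cruzi replicating inside host cells; inhibitors lower the luminescence signal.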 In kind it is functional, cell-based.
Data set [12] in a line: cells.
A short description of data set [13]: cytotoxicity toward NIH3T3 fibroblasts, dose response, counter-screen, cell-based, ATP luminescence, mouse fibroblasts (AID 2010).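 Note: cells exposed to compound for about 90 hours before reading.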 The format is functional. Background: A counterscreen serves to expose hits that act by an unwanted route or on another target.
The target in data set [14] is Cytochrome P450 3A4 (Homo sapiens, UniProt P08684).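 Note: CYP3A4 tested as one member of a cytochrome P450 panel screen.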
Sequence of Cytochrome P450 3A4 (P08684 whole entry): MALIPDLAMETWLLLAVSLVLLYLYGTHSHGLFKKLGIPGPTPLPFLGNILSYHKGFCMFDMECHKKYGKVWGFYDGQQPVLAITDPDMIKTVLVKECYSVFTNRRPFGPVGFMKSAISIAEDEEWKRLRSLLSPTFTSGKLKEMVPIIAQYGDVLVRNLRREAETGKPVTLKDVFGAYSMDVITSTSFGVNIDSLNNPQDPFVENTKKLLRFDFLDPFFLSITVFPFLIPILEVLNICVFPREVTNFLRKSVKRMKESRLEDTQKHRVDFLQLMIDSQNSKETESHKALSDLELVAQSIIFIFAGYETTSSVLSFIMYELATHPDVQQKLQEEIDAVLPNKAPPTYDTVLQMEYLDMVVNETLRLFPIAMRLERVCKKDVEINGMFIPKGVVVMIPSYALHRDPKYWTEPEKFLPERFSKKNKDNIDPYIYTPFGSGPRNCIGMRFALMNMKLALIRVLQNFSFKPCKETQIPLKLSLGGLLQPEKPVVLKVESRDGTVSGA
Data set [15] addresses Melanocortin receptor 4 (Homo sapiens, UniProt P32245). The format is functional, cell-based.
A short description of data set [16]: Luminescence Cell-Based Dose Confirmation HTS to Identify Activators of 5'UTR Stem-Loop Driven Alpha-Synuclein mRNA Translation in H4 Neuroglioblastoma Cells. [Related pubchem assays: 1829 (Project Summary), 1814 (Primary HTS)]. The format is functional.
Data set [17] is described as follows: Luminescence Cell-Based Dose Response HTS to Identify Activators of Luciferase Translation or Activity in H4 […] Cells. [Related pubchem assays: 1829 (Project Summary), 1814 (Primary HTS)]. In kind it is functional.
Data set [18] deals with H4. The data set is described as follows: Luminescence Cell-Based Dose Response HTS to Identify Activators of 5'UTR Stem-Loop Driven Prion Protein mRNA Translation in H4 Neuroglioblastoma Cells. [Related pubchem assays: 1829 (Project Summary), 1814 (Primary HTS)]. Conditions: Homo sapiens. In kind it is functional.
The target of data set [19] is T5, Low molecular weight phosphotyrosine protein phosphatase (Homo sapiens, UniProt P24666).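 Note: Dose-response confirmation assay measuring inhibition of LMPTP enzyme activity by fluorescence intensity read-out.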
T5 sequence (P24666 whole entry): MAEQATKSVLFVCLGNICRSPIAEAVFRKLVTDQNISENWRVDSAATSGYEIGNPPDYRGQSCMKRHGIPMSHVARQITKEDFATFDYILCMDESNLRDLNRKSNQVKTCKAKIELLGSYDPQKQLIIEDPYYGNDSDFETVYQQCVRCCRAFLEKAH
The format is functional. Conditions: read-out: IC50_Mean.

The nature of data set [20]: microbe, parasite or virus in culture. In kind it is functional. Conditions: Mycobacterium tuberculosis.

The source made the active and inactive calls.

Sequence of Cytochrome P450 2C9 (P11712 whole entry): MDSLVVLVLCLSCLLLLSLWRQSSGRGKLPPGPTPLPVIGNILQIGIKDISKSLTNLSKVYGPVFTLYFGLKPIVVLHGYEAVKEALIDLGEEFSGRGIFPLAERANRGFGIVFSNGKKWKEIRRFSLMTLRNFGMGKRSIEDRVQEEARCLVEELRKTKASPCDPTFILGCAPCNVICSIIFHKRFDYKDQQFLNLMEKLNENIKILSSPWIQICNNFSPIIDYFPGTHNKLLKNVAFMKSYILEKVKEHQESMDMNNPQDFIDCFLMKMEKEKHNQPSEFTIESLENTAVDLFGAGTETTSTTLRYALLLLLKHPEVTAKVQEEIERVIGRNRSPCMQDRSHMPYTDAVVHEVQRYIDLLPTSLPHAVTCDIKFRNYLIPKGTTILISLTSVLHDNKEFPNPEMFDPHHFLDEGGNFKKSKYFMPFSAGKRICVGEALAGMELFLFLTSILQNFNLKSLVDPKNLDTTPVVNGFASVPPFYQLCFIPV
Sequence of Melanocortin receptor 4 (P32245 whole entry): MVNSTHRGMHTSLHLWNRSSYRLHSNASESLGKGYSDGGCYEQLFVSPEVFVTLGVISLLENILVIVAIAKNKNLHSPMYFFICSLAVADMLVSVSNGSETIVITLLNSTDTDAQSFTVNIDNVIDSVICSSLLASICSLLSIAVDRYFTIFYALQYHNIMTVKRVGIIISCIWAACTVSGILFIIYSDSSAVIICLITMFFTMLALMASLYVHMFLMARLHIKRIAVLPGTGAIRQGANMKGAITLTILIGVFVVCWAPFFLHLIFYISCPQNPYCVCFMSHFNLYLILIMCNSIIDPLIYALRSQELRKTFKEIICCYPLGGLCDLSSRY
Sequence of DNA dC->dU-editing enzyme APOBEC-3A (P31941 whole entry): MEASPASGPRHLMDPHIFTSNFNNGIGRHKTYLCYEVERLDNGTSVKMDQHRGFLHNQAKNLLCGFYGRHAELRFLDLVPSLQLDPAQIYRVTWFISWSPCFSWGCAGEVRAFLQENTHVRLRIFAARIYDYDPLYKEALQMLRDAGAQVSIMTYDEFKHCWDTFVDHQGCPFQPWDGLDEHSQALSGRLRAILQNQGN

For `COc1cc(Sc2ccc(C)cc2)c(OC)cc1N`, the IC50 was 24.8 µM (active) in data set [1] and > 80 µM (inactive) in data set [2].

As to `COC(=O)c1cc(N2CCNCC2)nc2ccccc12`, the EC50 in data set [3] is 1.19 µM (active).

`CCc1nc(NCCc2ccccn2)c2nnn(Cc3ccccc3F)c2n1`: in data set [3], the EC50 is 2.66 µM (active).

As for `COC(=O)c1cnn(C(=O)c2cc(OC)ccc2Br)c1N`, the AC50 (in general, the concentration at which the activity in the assay is half-maximal) in [4] is listed as “inconclusive”.

For the molecule `CC1CCCC(C)N1C(=O)C1CC(c2ccc(F)cc2)=NO1` (stereo not given), in data set [5], the EC50 is > 100 µM (inactive).

Regarding `Cc1cc(C)c2sc(NC(=O)C3=COCCO3)nc2c1`, the IC50 in [2] was > 80 µM (inactive).

In the case of `Cc1ccc(C)c(S(=O)(=O)N2CCN(C(=O)CCc3nc(O)c4ccccc4n3)CC2)c1`, the IC50 in [6] is > 79 µM (inactive). Moreover, the EC50 in [3] was 4.73 µM (active).

As to `CC(=C\C(=O)O)/C(=C/c1ccccc1)C(=O)O`, the AC50 entry in data set [4] is reported as “inconclusive”.

On to `CCn1c2c(c(C)[n+]1CC)C(=O)CC(C)(C)C2`, for which the IC50 in data set [7] is 3.74 µM (active); in data set [8], 18.9 µM (active); in data set [9] it was 1.89 µM (active).

As to `Cc1cccc(Cn2cc(C=O)c3ccccc32)c1`, in data set [10], the half-maximal activity concentration (AC50) was 33.3 µM (active).

Turning to `O=C(NCCc1c[nH]cn1)c1ccc(-c2ccccc2)cc1`, the EC50 in data set [11] was < 0.1 µM (active); in data set [12] it was 0.062 µM (active); in data set [13], > 30 µM (not active); in [3], 5.96 µM (active).

Turning to `Cc1ccc2c(c1)C1(SCCS1)C(=O)N2`, the AC50 entry was “inconclusive” in data set [4] and 11.2 µM (inconclusive) in data set [14].

Consider `Cc1ccc(C)c(Cn2c(O)c(N=NC(S)=Nc3ccccc3F)c3ccccc32)c1`, for which the EC50 in [11] is 1.17 µM (active); in data set [13], > 60 µM (not active). The AC50 in data set [10] is 2.44 µM (active).

`CC(=O)Nc1cc(-c2ccc(C(=O)NC3CC3)cc2)cn2c(-c3cccc(C(C)=O)c3)cnc12`: in data set [15], the EC50 is > 89.2 µM (inactive). Also, in data set [6], the IC50 is 16.3 µM (active).

For `COc1cc(-c2cc(NC=O)c3ncc(-c4ccccc4)n3c2)cc(OC)c1OC`, the EC50 in data set [15] is > 89.2 µM (inactive). In addition, in data set [6], the IC50 was > 79 µM (inactive).

With `CCc1ccc(-c2ccc(=O)[nH]n2)cc1S(=O)(=O)CCC(=O)Nc1ccccc1OC`, the EC50 in data set [5] is > 100 µM (inactive).

Take `O=C1CC2(CC(c3c(F)cccc3Cl)=NO2)C(=O)N1c1ccccc1` (stereo not given): in data set [5], the EC50 is > 100 µM (inactive).

As to `FC(F)(F)c1ccc(Nc2nnnc3ccccc23)cc1`, the values for the EC50 in data set [16], in data set [17] and in data set [18] were 7.83 µM (active), 38 µM (active) and 6.68 µM (active), respectively. Also, the figures for the IC50 in data set [8] and in data set [19] were 8.61 µM (active) and 6.59 µM (active), respectively. Further, the CC50 in data set [20] was > 40 µM (active).
